Test results reported in paper PMC7961048, “Hierarchized phosphotarget binding by the seven human 14-3-3 isoforms” (Nature Communications, 2021).
Like-named read-outs stand apart in the source and are kept apart here. Starred links: 1 amine or outer side, 2 acyl side, 3 side chain; linkers in the order of their positions; H or OH if unused. Non-standard residues stand in square brackets, D forms with d. Residues, ends and D or L forms follow the SMILES beside them. *: point of attachment. X1 = O=C(CCCC[C@@H]1SC[C@@H]2NC(=O)N[C@@H]21)NCCCOCCOCCOCCCN*; pT = C[C@@H](OP(=O)(O)O)[C@H](N)C(=O)O; Suc = O=C(CCC(=O)[*:2])[*:1]

What was measured:
Type in all cases: binding
[1] = target: seven human 14-3-3 isoforms; test: Affinities averaged or compared across the 14-3-3 family (ΔΔGav, KD ratios, affinity maps); conditions: for KD ratios, compared to LRRK2 pS910/pS935, 14-3-3β / KD ratios, compared to LRRK2 pS910/pS935, 14-3-3γ / KD ratios, compared to LRRK2 pS910/pS935, 14-3-3ζ / KD ratios, compared to LRRK2 pS910/pS935, 14-3-3η / KD ratios, compared to LRRK2 pS910/pS935, 14-3-3τ / KD ratios, compared to LRRK2 pS910/pS935, average / KD ratios, compared to LRRK2 pS910/pS935, 14-3-3ε / KD ratios, compared to LRRK2 pS910/pS935, 14-3-3σ: Figure 4 panel b; for KD ratios, compared to LRRK2 pS910/pS935, average: average over the isoforms; for KD ratios, compared to 14-3-3γ, 14-3-3β / KD ratios, compared to 14-3-3γ, 14-3-3γ / KD ratios, compared to 14-3-3γ, 14-3-3ζ / KD ratios, compared to 14-3-3γ, 14-3-3η / KD ratios, compared to 14-3-3γ, 14-3-3τ / KD ratios, compared to 14-3-3γ, 14-3-3ε / KD ratios, compared to 14-3-3γ, 14-3-3σ: Figure 4 panel c; for binding to 14-3-3 proteins: competitive FP, seven MBP-fused full-length 14-3-3 isoforms, result in words; for ΔΔGav (average 14-3-3 binding free energy difference) relative to p35E6: averaged over 14-3-3 isoforms, 295 K; for KD ratio relative to p35E6: corresponds to ΔΔGav averaged over 14-3-3 isoforms
Excerpt: Former studies have measured the binding of the seven human 14-3-3 isoforms to unrelated phospho-motifs derived from Cystic Fibrosis Transmembrane Conductance Regulator (CFTR), Leucine-Rich Repeat Kinase 2 (LRRK2), Potassium channel subfamily K members (TASK1/3), C-Raf, the p65 subunit of the NF-κB transcription factor, and from Ubiquitin carboxyl-terminal hydrolase 8 (USP8), representing a wide variety of different 14-3-3-binding motifs, including C-terminal, internal, monovalent, or divalent motifs[40],[44]–[48].
(gray background). The color scale is either based on affinity values or on KD ratios. √ denotes affinities weaker than the limit of quantitation of the experimental assays. b Same map as in a, normalized to the strongest 14-3-3-binding motif. […] Source data are provided as a Source Data file.
All binding data and the obtained fits are provided as Supplementary Data File 1.

14-3-3ζ = target: T1, 14-3-3ζ (Homo sapiens, UniProt P63104); test: biochemical
T1 construct: Plasmids containing the cDNAs of the full-length 14-3-3 isoforms ε, γ, and ζ were received; made in house; host or cells: E. coli BL21(DE3)
T1 sequence (P63104 1-245): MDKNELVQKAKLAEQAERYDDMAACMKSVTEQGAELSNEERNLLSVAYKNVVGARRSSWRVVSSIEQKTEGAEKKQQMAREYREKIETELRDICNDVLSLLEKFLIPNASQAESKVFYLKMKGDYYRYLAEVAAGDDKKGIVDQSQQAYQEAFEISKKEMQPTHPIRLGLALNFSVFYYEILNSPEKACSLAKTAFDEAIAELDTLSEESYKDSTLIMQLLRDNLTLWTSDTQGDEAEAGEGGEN
Protocol: (§1) The seven full-length human 14-3-3 isoforms, produced as fusions to a maltose-binding protein (MBP), were analyzed for their interaction with four phospho-PBMs from E6 proteins of HPV types 16, 18, 33, and 35 belonging to subgroups 1 and 2 (as defined in Supplementary Fig. 1). For comparison, we also measured two non-viral phospho-PBMs originating from protein kinase RSK1[28]. We used a competitive fluorescence polarization (FP) assay that measures the displacement of a fluorescent tracer phosphopeptide (here, derived from the HSPB6 protein) bound beforehand to 14-3-3, by an increasing amount of the peptide of interest.
(§2) For affinity measurements, full-length human 14-3-3 constructs with an N-terminal MBP fusion were used. Plasmids containing the cDNAs of the full-length 14-3-3 isoforms ε, γ, and ζ were received from Prof. Lawrence Banks. cDNAs encoding other full-length 14-3-3 isoforms β, τ, η, and σ were obtained as codon-optimized for E. coli expression synthetic genes from IDT Technologies (Coralville, Iowa, USA). All 14-3-3 isoforms were fused via a three-alanine linker to the C terminus of a mutant MBP carrying the following amino acid substitutions facilitating crystallization: D83A, K84A, K240A, E360A, K363A, and D364A[62]. All resulting clones were verified by sequencing. The MBP-fused proteins were expressed in E. coli BL21(DE3) with IPTG induction. Proteins were affinity purified on an amylose column and were further purified by ion-exchange chromatography (HiTrap Q HP, GE Healthcare). Unfused 14-3-3 isoforms devoid of the flexible C-terminal tails (14-3-3βΔC, 14-3-3τΔC 14-3-3εΔC) were expressed using IPTG induction and purified by subtractive IMAC and SEC[40]. Protein concentrations were determined by UV spectroscopy. The samples were supplemented with glycerol and TCEP before aliquoting and freezing in liquid nitrogen.
(§3) Unless otherwise stated, all phosphopeptide-binding measurements were performed using full-length 14-3-3 proteins fused to the C terminus of MBP, favoring optimal solubility and a standardized parallel purification scheme.
(§4) FP was measured with a PHERAstar (BMG Labtech, Offenburg, Germany) microplate reader by using 485 ± 20 and 528 ± 20 nm band-pass filters (for excitation and emission, respectively). In direct FP measurements, a dilution series of the 14-3-3 protein was prepared in 96-well plates (96-well skirted PCR plate, 4ti-0740, 4titude, Wotton, UK) in a 20 mM HEPES pH 7.5 buffer containing 150 mM NaCl, 0.5 mM TCEP, 0.01% Tween 20, 50 nM fluorescently labeled fpB6 peptide, and 100 μM FSC, if indicated. The volume of the dilution series was 40 μl, which was later divided into three technical replicates of 10 μl upon transferring to 384-well micro-plates (low binding microplate, 384 well, E18063G5, Greiner Bio-One, Kremsmünster, Austria). In total, polarization of the probe was measured at eight different protein concentrations (whereas one contained no protein and corresponded to the free peptide). In competitive FP measurements, the same buffer was supplemented with the protein to achieve a complex formation of 60–80%, based on the direct titration. Then, this mixture was used for creating a dilution series of the unlabeled competitor (i.e., the studied peptides) and the measurement was carried out identically as in the direct experiment.
(§5) All FP experiments were done in triplicates. Analysis of FP experiments were carried out using ProFit, an in-house developed, Python-based fitting program. ProFit utilizes a Monte Carlo approach to take into account experimental variability. It generates hundreds of simulated datasets, based on the experimental data variance and fits direct and competitive measurements in pairs.

14-3-3ε = target: T2, 14-3-3ε (Homo sapiens, UniProt P62258); test: biochemical
T2 construct: Plasmids containing the cDNAs of the full-length 14-3-3 isoforms ε, γ, and ζ were received; made in house; host or cells: E. coli BL21(DE3)
T2 sequence (P62258 1-255): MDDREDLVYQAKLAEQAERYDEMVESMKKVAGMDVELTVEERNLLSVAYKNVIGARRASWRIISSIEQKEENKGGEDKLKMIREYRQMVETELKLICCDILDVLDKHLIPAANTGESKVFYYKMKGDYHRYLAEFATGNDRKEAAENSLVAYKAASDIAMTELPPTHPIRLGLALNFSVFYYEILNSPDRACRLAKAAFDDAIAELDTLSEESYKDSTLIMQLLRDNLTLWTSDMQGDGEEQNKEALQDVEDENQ
Protocol: as §1, §2, §3, §4, §5

Compound | KD ratios, compared to LRRK2 pS910/pS935, 14-3-3β [1] | KD ratios, compared to LRRK2 pS910/pS935, 14-3-3γ [1] | KD ratios, compared to LRRK2 pS910/pS935, 14-3-3ζ [1] | KD ratios, compared to LRRK2 pS910/pS935, 14-3-3η [1] | KD ratios, compared to LRRK2 pS910/pS935, 14-3-3τ [1] | KD ratios, compared to LRRK2 pS910/pS935, average [1] | KD ratios, compared to 14-3-3γ, 14-3-3β [1] | KD ratios, compared to 14-3-3γ, 14-3-3γ [1] | KD ratios, compared to 14-3-3γ, 14-3-3ζ [1] | KD ratios, compared to 14-3-3γ, 14-3-3η [1] | KD ratios, compared to 14-3-3γ, 14-3-3τ [1] | binding to 14-3-3 proteins [1] | Kd (14-3-3ζ) | Kd (14-3-3ε) | KD ratios, compared to LRRK2 pS910/pS935, 14-3-3ε [1] | KD ratios, compared to LRRK2 pS910/pS935, 14-3-3σ [1] | KD ratios, compared to 14-3-3γ, 14-3-3ε [1] | KD ratios, compared to 14-3-3γ, 14-3-3σ [1] | ΔΔGav (average 14-3-3 binding free energy difference) relative to p35E6 [1] | KD ratio relative to p35E6 [1] | other results
CC(C)C[C@H](NC(=O)[C@H](CCC(N)=O)NC(=O)[C@@H](NC(=O)[C@H](CCC(=O)O)NC(=O)[C@H](CCCNC(=N)N)NC(=O)[C@H](CCCNC(=N)N)NC(=O)[C@@H](NC(=O)[C@H](CCCNC(=N)N)NC(=O)[C@H](CO)NC(=O)[C@H](CO)NC(=O)CCC(=O)NCCCOCCOCCOCCCNC(=O)CCCC[C@@H]1SC[C@@H]2NC(=O)N[C@@H]21)[C@@H](C)O)[C@@H](C)OP(=O)(O)O)C(=O)O [pHPV16E6] | 7536 | 11625 | 15333 | 16771 | 15158 | 13000 | 4.27 | 1.00 | 1.98 | 2.16 | 3.87 | detectably bound | 73.6 ± 19.1 µM | > 300 µM | – | – | – | – | – | – | Binding affinities (KD) of various 14-3-3-binding motifs, 14-3-3ε (14-3-3ε; Figure 4 panel a, unit from the colour scale line, motifs measured in this work): √
CC(C)C[C@H](NC(=O)[C@H](CCCNC(=N)N)NC(=O)CCC(=O)NCCCOCCOCCOCCCNC(=O)CCCC[C@@H]1SC[C@@H]2NC(=O)N[C@@H]21)C(=O)N[C@@H](CCC(N)=O)C(=O)N[C@@H](CCCNC(=N)N)C(=O)N[C@@H](CCCNC(=N)N)C(=O)N[C@@H](CCCNC(=N)N)C(=O)N[C@@H](CCC(=O)O)C(=O)N[C@H](C(=O)N[C@@H](CCC(N)=O)C(=O)N[C@H](C(=O)O)C(C)C)[C@@H](C)OP(=O)(O)O [pHPV18E6] | 2000.00 | 3437.50 | 4666.67 | 4916.67 | 3978.95 | 4200.00 | 3.84 | 1.00 | 2.04 | 2.15 | 3.44 | detectably bound | 22.4 ± 1.3 µM | – | 8145.16 | 2293.73 | 9.18 | 12.64 | – | – | –
CC(C)C[C@H](NC(=O)[C@H](C)NC(=O)[C@@H](NC(=O)[C@H](CCC(=O)O)NC(=O)[C@H](CCCNC(=N)N)NC(=O)[C@H](CCCNC(=N)N)NC(=O)[C@H](CCCNC(=N)N)NC(=O)[C@H](CO)NC(=O)[C@H](CCCNC(=N)N)NC(=O)[C@H](CO)NC(=O)CCC(=O)NCCCOCCOCCOCCCNC(=O)CCCC[C@@H]1SC[C@@H]2NC(=O)N[C@@H]21)[C@@H](C)OP(=O)(O)O)C(=O)O [pHPV33E6] ({X1-Suc}-SRSRRRE[pT]AL-OH) | 191.94 | 293.75 | 566.67 | 412.50 | 370.53 | 400.00 | 4.31 | 1.00 | 2.89 | 2.11 | 3.74 | detectably bound | – | 10.3 µM | 830.65 | 111.72 | 10.96 | 7.20 | –10.9 ± 0.7 kJ/mol | ~100 fold | –
CC(C)[C@H](NC(=O)[C@H](CCC(=O)O)NC(=O)[C@@H](NC(=O)[C@H](CCC(=O)O)NC(=O)[C@H](CCCNC(=N)N)NC(=O)[C@H](CCCNC(=N)N)NC(=O)[C@H](CCCNC(=N)N)NC(=O)[C@@H]1CCCN1C(=O)[C@H](CCCCN)NC(=O)[C@H](CO)NC(=O)CCC(=O)NCCCOCCOCCOCCCNC(=O)CCCC[C@@H]1SC[C@@H]2NC(=O)N[C@@H]21)[C@@H](C)OP(=O)(O)O)C(=O)O [pHPV35E6T-6R] ({X1-Suc}-SKPRRRE[pT]EV-OH) | 8483 | 22250 | 28958 | 17708 | 20421 | 20000 | 2.51 | 1.00 | 1.95 | 1.19 | 2.72 | – | 139 ± 21 µM | – | – | – | – | – | –1.1 ± 0.5 kJ/mol | 1.5 fold | –
CC(C)[C@H](NC(=O)[C@H](CCC(=O)O)NC(=O)[C@@H](NC(=O)[C@H](CCC(=O)O)NC(=O)[C@H](CCCNC(=N)N)NC(=O)[C@H](CCCNC(=N)N)NC(=O)[C@@H](NC(=O)[C@@H]1CCCN1C(=O)[C@H](CCCCN)NC(=O)[C@H](CO)NC(=O)CCC(=O)NCCCOCCOCCOCCCNC(=O)CCCC[C@@H]1SC[C@@H]2NC(=O)N[C@@H]21)[C@@H](C)O)[C@@H](C)OP(=O)(O)O)C(=O)O [pHPV35E6] ({X1-Suc}-SKPTRRE[pT]EV-OH) | – | – | – | – | – | – | – | – | – | – | – | detectably bound | – | > 300 µM | – | – | – | – | – | – | Binding affinities (KD) of various 14-3-3-binding motifs, 14-3-3ε (14-3-3ε): √
